{"source": "patent US7597692B2", "about": "“Microscission processes and procedures” (Massachusetts Institute of Technology, priority 2000, dated 2009)", "test_system": "Subject B site (forearm microconduit)", "experiment": "Lidocaine applied on forearm microconduit site, anesthetic effect (Example 3)", "type": "in vivo, human", "details": "3% lidocaine applied on Subject B microconduit site"}
{"smiles": "CCN(CC)CC(=O)Nc1c(C)cccc1C", "note": "[lidocaine]", "values": [{"measurement": "anesthetic effects", "result": "No discernible anesthetic effects were observed"}]}
